From the supplement of paper PMC10307832

What follows are cell lines tested with CCOC(=O)CCNc1cc(N2CCc3ccccc3CC2)nc(-c2ccccn2)n1 [GSK-J4] + CC(C)C[C@H](NC(=O)[C@H](Cc1ccccc1)NC(=O)c1cnccn1)B(O)O [Bortezomib] (partner 0.002 µM) (assay: relative viability (nuclei count vs DMSO), 5 days (fraction); higher = more cells survive). Details: first compound 0.5 µM.
Method in brief: (§1)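 Relative viability is defined as nuclei in treated wells over nuclei in vehicle wells. Duplicate plates were run and medians reported. Lung cancer cell lines in 1536-well plates were dosed by pin tool one day after seeding, with one drug or with a fixed anchor-drug dose plus five library-drug doses (not always all listed) in √10 steps, and nuclei were counted after 5 days.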

Cell Line	relative viability
PC-14	0.719
NCI-H1666	0.776
EKVX	0.981
NCI-H1755	0.937
NCI-H2023	0.912
HCC-78	0.442
SK-LU-1	1.02
PC-3 [JPC-3]	0.77
LOU-NH91	0.525
NCI-H647	0.912
NCI-H23	0.987
EPLC-272H	0.864
NCI-H2126	1.02
ChaGo-K-1	1.21
HCC-44	0.842
NCI-H1734	0.795
NCI-H650	0.76
NCI-H2228	0.745
HARA	1.1
Calu-6	0.884
COR-L23	0.944
LCLC-103H	1.05
LXF-289	0.952
EBC-1	0.436
NCI-H1299	1.06
CAL-12T	1.06
IA-LM	0.709
NCI-H1703	0.377
NCI-H1563	0.809
ABC-1	0.329

Same assay, conditions: first compound 1.581 µM

Cell Line	relative viability
PC-14	0.91
EKVX	0.961
NCI-H1755	0.813
NCI-H2023	0.71
HCC-78	0.509
SK-LU-1	1.06
PC-3 [JPC-3]	0.764
LOU-NH91	0.497
NCI-H647	0.862
NCI-H2126	0.617
HCC-44	0.86
NCI-H1734	0.878
NCI-H650	0.525
NCI-H2228	0.913
HARA	1
Calu-6	0.912
COR-L23	0.815
LCLC-103H	0.96
LXF-289	0.866
EBC-1	0.526
NCI-H1299	0.94
CAL-12T	0.834
IA-LM	0.816
NCI-H1703	0.377
NCI-H1563	0.952
ABC-1	0.246

Same assay, conditions: first compound 5 µM

Cell Line	relative viability
PC-14	0.973
NCI-H1666	0.84
EKVX	1.28
NCI-H1755	0.649
NCI-H2023	0.878
HCC-78	0.565
SK-LU-1	0.705
PC-3 [JPC-3]	0.705
LOU-NH91	0.426
NCI-H647	0.652
NCI-H23	0.791
EPLC-272H	1.01
NCI-H2126	1.09
ChaGo-K-1	0.913
HCC-44	0.916
NCI-H1734	0.738
NCI-H650	0.495
NCI-H2228	0.973
Calu-6	1.08
LCLC-103H	1.02
LXF-289	1
EBC-1	0.441
NCI-H1299	0.876
CAL-12T	0.785
IA-LM	0.775
NCI-H1703	0.234
NCI-H1563	0.776
ABC-1	0.258

Same assay, conditions: first compound 15.81 µM

Cell Line	relative viability
PC-14	0.759
NCI-H1666	0.66
EKVX	1.01
NCI-H1755	0.886
NCI-H2023	0.799
HCC-78	0.422
SK-LU-1	0.8
PC-3 [JPC-3]	0.789
LOU-NH91	0.467
NCI-H647	1.12
NCI-H23	1.03
EPLC-272H	0.851
NCI-H2126	1.05
ChaGo-K-1	0.972
HCC-44	0.892
NCI-H1734	0.725
NCI-H650	0.663
NCI-H2228	0.906
HARA	1.09
Calu-6	1.13
COR-L23	1.01
LCLC-103H	0.899
LXF-289	0.994
EBC-1	0.61
NCI-H1299	0.98
CAL-12T	1.01
IA-LM	0.763
NCI-H1703	0.355
NCI-H1563	0.66
ABC-1	0.328

Same assay, conditions: first compound 50 µM

Cell Line	relative viability
PC-14	0.8
NCI-H1666	0.495
EKVX	0.963
NCI-H1755	0.905
NCI-H2023	0.801
HCC-78	0.491
SK-LU-1	0.902
PC-3 [JPC-3]	0.816
LOU-NH91	0.621
NCI-H647	0.982
NCI-H23	0.969
EPLC-272H	0.936
NCI-H2126	0.998
ChaGo-K-1	0.931
HCC-44	0.934
NCI-H1734	0.783
NCI-H650	0.663
NCI-H2228	0.937
HARA	1.08
Calu-6	0.898
COR-L23	0.729
LCLC-103H	1.07
LXF-289	1.02
EBC-1	0.346
NCI-H1299	0.985
CAL-12T	0.941
IA-LM	0.131
NCI-H1703	0.436
NCI-H1563	0.808
ABC-1	0.327

The cell lines below were run with CCOC(=O)CCNc1cc(N2CCc3ccccc3CC2)nc(-c2ccccn2)n1 [GSK-J4] + CC(=O)Nc1cccc(-n2c(=O)n(C3CC3)c(=O)c3c(Nc4ccc(I)cc4F)n(C)c(=O)c(C)c32)c1 [Trametinib] (partner 0.02 µM) in the same assay as above. Details: first compound 0.5 µM.
Method in brief: as §1

Cell Line	relative viability
NCI-H522	0.817
PC-14	0.68
NCI-H1666	0.843
EKVX	0.337
NCI-H1755	0.809
NCI-H2023	0.559
HCC-78	0.765
SK-LU-1	0.468
PC-3 [JPC-3]	0.783
LOU-NH91	0.816
NCI-H647	0.521
NCI-H23	0.354
EPLC-272H	0.328
NCI-H2126	0.567
ChaGo-K-1	0.934
HCC-44	1.1
NCI-H1734	0.633

Cell Line	relative viability
NCI-H650	0.949
LK-2	0.655
NCI-H2228	0.523
NCI-H2342	0.819
NCI-H1944	0.4
HARA	0.6
COR-L23	0.461
LCLC-103H	0.68
LXF-289	0.696
NCI-H358	0.145
SW 900	0.548
CAL-12T	0.337
NCI-H1648	0.467
NCI-H1395	1.04
NCI-H1793	0.432
NCI-H2170	0.852
SK-MES-1	0.56

Same assay, conditions: first compound 1.581 µM

Cell Line	relative viability
NCI-H522	0.6
PC-14	0.663
NCI-H1666	0.695
NCI-H1755	0.72
NCI-H2023	0.591
HCC-78	0.706
SK-LU-1	0.499
PC-3 [JPC-3]	0.551
LOU-NH91	0.427
NCI-H647	0.393
NCI-H23	0.367
EPLC-272H	0.251
NCI-H2126	0.575
HCC-44	0.91
NCI-H1734	0.524
NCI-H650	0.871
LK-2	0.727
NCI-H2228	0.526
NCI-H2342	0.752
NCI-H1944	0.394
HARA	0.799
COR-L23	0.576
LCLC-103H	0.64
LXF-289	0.592
SW 900	0.691
CAL-12T	0.314
NCI-H1395	0.919
NCI-H1793	0.375
NCI-H2170	0.882
SK-MES-1	0.582

Same assay, conditions: first compound 5 µM

Cell Line	relative viability
PC-14	0.503
NCI-H1666	0.923
EKVX	0.515
NCI-H1755	0.754
NCI-H2023	0.59
HCC-78	1.15
SK-LU-1	0.385
PC-3 [JPC-3]	0.598
LOU-NH91	0.638
NCI-H647	0.357
NCI-H23	0.393
EPLC-272H	0.325
NCI-H2126	0.566
ChaGo-K-1	0.939
HCC-44	1.06
NCI-H1734	0.627
LK-2	1.27
NCI-H2228	0.48
NCI-H2342	0.866
LCLC-103H	0.674
LXF-289	0.688
NCI-H358	0.157
SW 900	0.877
CAL-12T	0.424
NCI-H1648	0.643
NCI-H1395	1.02
NCI-H1793	0.336
NCI-H2170	0.958
SK-MES-1	0.497

Same assay, conditions: first compound 15.81 µM

Cell Line	relative viability
NCI-H522	0.75
PC-14	0.738
NCI-H1666	0.704
EKVX	0.307
NCI-H1755	0.649
NCI-H2023	0.475
HCC-78	0.559
SK-LU-1	0.43
PC-3 [JPC-3]	0.647
LOU-NH91	0.718
NCI-H647	0.445
NCI-H23	0.285
EPLC-272H	0.272
NCI-H2126	0.503
ChaGo-K-1	0.841
HCC-44	1.04
NCI-H1734	0.58

Cell Line	relative viability
NCI-H650	0.771
LK-2	0.664
NCI-H2228	0.415
NCI-H2342	0.917
NCI-H1944	0.307
HARA	0.516
COR-L23	0.544
LCLC-103H	0.622
LXF-289	0.654
NCI-H358	0.118
SW 900	0.785
CAL-12T	0.288
NCI-H1395	0.806
NCI-H1793	0.28
NCI-H2170	0.872
SK-MES-1	0.489

Same assay, conditions: first compound 50 µM

Cell Line	relative viability
NCI-H522	0.7
PC-14	0.691
NCI-H1666	0.77
EKVX	0.21
NCI-H1755	0.65
NCI-H2023	0.431
HCC-78	1.02
SK-LU-1	0.383
PC-3 [JPC-3]	0.64
LOU-NH91	0.803
NCI-H647	0.499
NCI-H23	0.34
EPLC-272H	0.232
NCI-H2126	0.503
ChaGo-K-1	0.808
HCC-44	1.03
NCI-H1734	0.545

Cell Line	relative viability
NCI-H650	0.745
LK-2	1.04
NCI-H2228	0.334
NCI-H2342	0.946
NCI-H1944	0.357
HARA	0.471
COR-L23	0.429
LCLC-103H	0.626
LXF-289	0.584
NCI-H358	0.131
SW 900	0.83
CAL-12T	0.254
NCI-H1648	0.429
NCI-H1395	0.854
NCI-H1793	0.228
NCI-H2170	0.829
SK-MES-1	0.478

What follows are cell lines tested with CN1CCC(CC1)OC2=CC(=C(C=C2)NC3=NC=C4C(=N3)N(C(=O)N4C)C5CCCC5)OC [AZ3146] + C[C@@H](Oc1cc(-c2cnn(C3CCNCC3)c2)cnc1N)c1c(Cl)ccc(F)c1Cl [Crizotinib] (partner 1 µM) in the same assay as above. Details: first compound 0.08 µM.
Method in brief: as §1

Cell Line	relative viability
PC-14	0.898
NCI-H1666	1.08
EKVX	0.957
NCI-H1755	0.868
NCI-H2023	0.592
SK-LU-1	1.1
PC-3 [JPC-3]	0.912
LOU-NH91	0.749
NCI-H647	0.983
NCI-H23	0.398
EPLC-272H	0.78
NCI-H2126	1.05
ChaGo-K-1	1
HCC-44	0.779
NCI-H1734	0.678
